Measurements reported in patent US8906909B2 (Curis, Inc., priority 2009, dated 2014).

Experiments:
[1] = tested on: HDACs (HeLa cell nuclear extracts); experiment: HDAC enzymatic activity, Biomol Color de Lys system; format: biochemical
Method in brief: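 IC50 from sigmoidal dose-response fits of fluorescence (Ex 350–380, Em 440–460 nm). Compounds in DMSO dilution series incubated 1 h at 25 °C with HeLa nuclear extract HDACs and colorimetric substrate, pH 8.0 Tris/Cl buffer with NaCl, KCl, MgCl2, before developer termination.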

Row | Compound | IC50 [1] [nM] | melting point
1 | CN(CCCCCC(=O)NO)Cc1cc2nc(-c3cccc4[nH]ncc34)nc(N3CCOCC3)c2s1 [Compound 103, 6-(((2-(1H-indazol-4-yl)-4-morpholinothieno[3,2-d]pyrimidin-6-yl)methyl)(methyl)amino)-N-hydroxyhexanamide] | < 100 | 115 to 118 °C
2 | CN(CCCCC(=O)NO)Cc1cc2nc(-c3cccc4[nH]ncc34)nc(N3CCOCC3)c2s1 [Compound 102, 5-(((2-(1H-indazol-4-yl)-4-morpholinothieno[3,2-d]pyrimidin-6-yl)methyl)(methyl)amino)-N-hydroxypentanamide] | 100 to 1000 | 120 to 122 °C
3 | CC(C)c1ccc(-c2nc(N3CCOCC3)c3sc(CN(C)c4ncc(C(=O)NO)cn4)cc3n2)cc1 [Compound 148, N-hydroxy-2-(((2-(4-isopropylphenyl)-4-morpholinothieno[3,2-d]pyrimidin-6-yl)methyl)(methyl)amino)pyrimidine-5-carboxamide] | < 100 | 155 °C (dec.)
4 | CS(=O)(=O)N1CCN(Cc2cc3nc(-c4cccc5[nH]ncc45)nc(N4CCN(CCCCCC(=O)NO)CC4)c3s2)CC1 [Compound 31, 6-(4-(2-(1H-indazol-4-yl)-6-((4-(methylsulfonyl)piperazin-1-yl)methyl)thieno[3,2-d]pyrimidin-4-yl)piperazin-1-yl)-N-hydroxyhexanamide] | 100 to 1000 | 140 to 145 °C
5 | CN(Cc1cc2nc(-c3cnc(CN)nc3)nc(N3CCOCC3)c2s1)c1ncc(C(=O)NO)cn1 [Compound 124, 2-(((2-(2-(aminomethyl)pyrimidin-5-yl)-4-morpholinothieno[3,2-d]pyrimidin-6-yl)methyl)(methyl)amino)-N-hydroxypyrimidine-5-carboxamide] | < 100 | > 300 °C
6 | CN(Cc1cc2nc(-c3cccc4[nH]ncc34)nc(N3CCOCC3)c2s1)CC1CCN(c2ncc(C(=O)NO)cn2)CC1 [Compound 16, 2-(4-((((2-(1H-indazol-4-yl)-4-morpholinothieno[3,2-d]pyrimidin-6-yl)methyl)(methyl)amino)methyl)piperidin-1-yl)-N-hydroxypyrimidine-5-carboxamide] | 100 to 1000 | 174 to 175 °C
7 | CN(Cc1cc2nc(-c3ccc4c(c3)NCCO4)nc(N3CCOCC3)c2s1)c1ncc(C(=O)NO)cn1 [Compound 182, 2-(((2-(3,4-dihydro-2H-benzo[b][1,4]oxazin-6-yl)-4-morpholinothieno[3,2-d]pyrimidin-6-yl)methyl)(methyl)amino)-N-hydroxypyrimidine-5-carboxamide] | < 100 | 170 to 183 °C
8 | CS(=O)(=O)N1CCN(Cc2cc3nc(-c4cccc5c4cnn5CCCCCCC(=O)NO)nc(N4CCOCC4)c3s2)CC1 [Compound 5, N-hydroxy-7-(4-(6-((4-(methylsulfonyl)piperazin-1-yl)methyl)-4-morpholinothieno[3,2-d]pyrimidin-2-yl)-1H-indazol-1-yl)heptanamide] | < 100 | 127 to 130 °C
9 | CCCCN(Cc1cc2nc(-c3cccc4[nH]ncc34)nc(N3CCOCC3)c2s1)c1ncc(C(=O)NO)cn1 [Compound 85, 2-(((2-(1H-indazol-4-yl)-4-morpholinothieno[3,2-d]pyrimidin-6-yl)methyl)(butyl)amino)-N-hydroxypyrimidine-5-carboxamide] | < 100 | 234 to 236 °C
10 | CN(CCCCCCC(=O)NO)Cc1cc2nc(-c3cccc4[nH]ncc34)nc(N3CCOCC3)c2s1 [Compound 104, 7-(((2-(1H-indazol-4-yl)-4-morpholinothieno[3,2-d]pyrimidin-6-yl)methyl)(methyl)amino)-N-hydroxyheptanamide] | 100 to 1000 | 131 to 133 °C
11 | O=C(/C=C/c1ccc(NCc2cc3nc(-c4cccc5[nH]ncc45)nc(N4CCOCC4)c3s2)cc1)NO [Compound 80, (E)-3-(4-((2-(1H-indazol-4-yl)-4-morpholinothieno[3,2-d]pyrimidin-6-yl)methylamino)phenyl)-N-hydroxyacrylamide] | 100 to 1000 | > 300 °C
12 | O=C(CCCCCCNCc1cc2nc(-c3cccc4[nH]ncc34)nc(N3CCOCC3)c2s1)NO [Compound 44, 7-((2-(1H-indazol-4-yl)-4-morpholinothieno[3,2-d]pyrimidin-6-yl)methylamino)-N-hydroxyheptanamide] | 100 to 1000 | 188 to 190 °C
13 | O=C(CCCCCN1CCN(Cc2cc3nc(-c4cccc5[nH]ncc45)nc(N4CCOCC4)c3s2)CC1)NO [Compound 12, 6-(4-((2-(1H-indazol-4-yl)-4-morpholinothieno[3,2-d]pyrimidin-6-yl)methyl)piperazin-1-yl)-N-hydroxyhexanamide] | 100 to 1000 | 123 to 124 °C
14 | CN(Cc1cc2nc(-c3ccccc3CO)nc(N3CCOCC3)c2s1)c1ncc(C(=O)NO)cn1 [Compound 141, N-hydroxy-2-(((2-(2-(hydroxymethyl)phenyl)-4-morpholinothieno[3,2-d]pyrimidin-6-yl)methyl)(methyl)amino)pyrimidine-5-carboxamide] | < 100 | 173 to 176 °C
15 | CN(Cc1cc2nc(-c3ccc(S(C)(=O)=O)cc3)nc(N3CCOCC3)c2s1)c1ncc(C(=O)NO)cn1 [Compound 149, N-hydroxy-2-(methyl((2-(4-(methylsulfonyl)phenyl)-4-morpholinothieno[3,2-d]pyrimidin-6-yl)methyl)amino)pyrimidine-5-carboxamide] | < 100 | 206 to 208 °C
16 | CCc1ncc(-c2nc(N3CCOCC3)c3sc(CN(C)c4ncc(C(=O)NO)cn4)cc3n2)cn1 [Compound 121, 2-(((2-(2-ethylpyrimidin-5-yl)-4-morpholinothieno[3,2-d]pyrimidin-6-yl)methyl)(methyl)amino)-N-hydroxypyrimidine-5-carboxamide] | < 100 | 153 to 156 °C

Continued, values first:

Row | IC50 [1] [nM] | melting point | Compound
17 | < 100 | 214 to 217 °C | CN(Cc1cc2nc(-c3cn[nH]c3)nc(N3CCOCC3)c2s1)c1ncc(C(=O)NO)cn1 [Compound 196, N-hydroxy-2-(methyl((4-morpholino-2-(1H-pyrazol-4-yl)thieno[3,2-d]pyrimidin-6-yl)methyl)amino)pyrimidine-5-carboxamide]
18 | < 100 | 190 to 197 °C | CNc1ccc(-c2nc(N3CCOCC3)c3sc(S(=O)(=O)NCC4CCN(c5ncc(C(=O)NO)cn5)CC4)cc3n2)cn1 [Compound 310, N-Hydroxy-2-(4-((2-(6-(methylamino)pyridin-3-yl)-4-morpholinothieno[3,2-d]pyrimidine-6-sulfonamido)methyl)piperidin-1-yl)pyrimidine-5-carboxamide]
19 | 100 to 1000 | 140 to 142 °C | CS(=O)(=O)N1CCN(Cc2cc3nc(-c4ccc(OCCCCCC(=O)NO)cc4)nc(N4CCOCC4)c3s2)CC1 [Compound 320, N-Hydroxy-6-(4-(6-((4-(methylsulfonyl)piperazin-1-yl)methyl)-4-morpholinothieno[3,2-d]pyrimidin-2-yl)phenoxy)hexanamide]
20 | < 100 | 230 to 235 °C | CC(O)c1ccc(F)c(-c2nc(N3CCOCC3)c3sc(CN(C)c4ncc(C(=O)NO)cn4)cc3n2)c1 (stereo not drawn) [Compound 295, 2-(((2-(2-Fluoro-5-(1-hydroxyethyl)phenyl)-4-morpholinothieno[3,2-d]pyrimidin-6-yl)methyl)(methyl)amino)-N-hydroxypyrimidine-5-carboxamide]
21 | < 100 | 230 to 233 °C | Cc1nc2ccc(-c3nc(N4CCOCC4)c4sc(CN(C)c5ncc(C(=O)NO)cn5)cc4n3)cc2[nH]1 [Compound 199, N-hydroxy-2-(methyl((2-(2-methyl-3H-benzo[d]imidazol-5-yl)-4-morpholinothieno[3,2-d]pyrimidin-6-yl)methyl)amino)pyrimidine-5-carboxamide]
22 | < 100 | 200 to 205 °C | CNc1ccc(-c2nc(N3CCOCC3)c3sc(C(C)(C)Nc4ncc(C(=O)NO)cn4)cc3n2)cn1 [Compound 240, N-Hydroxy-2-(2-(2-(6-(methylamino)pyridin-3-yl)-4-morpholinothieno[3,2-d]pyrimidin-6-yl)propan-2-ylamino)pyrimidine-5-carboxamide]
23 | < 100 | 272 to 275 °C | CN(Cc1cc2nc(-c3ccc4[nH]c(=O)[nH]c4c3)nc(N3CCOCC3)c2s1)c1ncc(C(=O)NO)cn1 [Compound 186, N-hydroxy-2-(methyl((4-morpholino-2-(2-oxo-2,3-dihydro-1H-benzo[d]imidazol-5-yl)thieno[3,2-d]pyrimidin-6-yl)methyl)amino)pyrimidine-5-carboxamide]
24 | 1000 to 10000 | 220 to 230 °C | Nc1ncc(-c2nc(N3CCOCC3)c3sc(NCCCC(=O)NO)cc3n2)cn1 [Compound 225, 4-(2-(2-aminopyrimidin-5-yl)-4-morpholinothieno[3,2-d]pyrimidin-6-ylamino)-N-hydroxybutanamide]
25 | < 100 | > 300 °C | COc1ccc(-c2nc(N3CCOCC3)c3sc(NS(=O)(=O)c4ccc(/C=C/C(=O)NO)cc4)cc3n2)cn1 [Compound 222, N-Hydroxy-3-{4-[2-(6-methoxy-pyridin-3-yl)-4-morpholin-4-yl-thieno[3,2-d]pyrimidin-6-ylsulfamoyl]-phenyl}-acrylamide]
26 | < 100 | 110 to 115 °C | CN(Cc1cc2nc(-c3ccc(OCCN)nc3)nc(N3CCOCC3)c2s1)c1ncc(C(=O)NO)cn1 [Compound 259, 2-(((2-(6-(2-Aminoethoxy)pyridin-3-yl)-4-morpholinothieno[3,2-d]pyrimidin-6-yl)methyl)(methyl)amino)-N-hydroxypyrimidine-5-carboxamide]
27 | < 100 | 210 to 215 °C | COc1ncc(-c2nc(N3CCOCC3)c3sc(C(C)N(C)c4ncc(C(=O)NO)cn4)cc3n2)cn1 (stereo not drawn) [Compound 262, N-Hydroxy-2-((1-(2-(2-methoxypyrimidin-5-yl)-4-morpholinothieno[3,2-d]pyrimidin-6-yl)ethyl)(methyl)amino)pyrimidine-5-carboxamide]
